Here are results for six substances from paper PMC4674085, “Towards Prebiotic Catalytic Amyloids Using High Throughput Screening” (PLoS ONE, 2015).

Series [1] can be described thus: Plate reader 4NPA hydrolysis kinetics of purified peptide amyloids at pH 7.3. Format: biochemical. The note with it: 4NPA hydrolysis, pH 7.3 HEPES with zinc(II), 20 μM purified peptide; for k cat/K M: 0.1-1.0 mM 4NPA, 1% CH3CN, A400, Michaelis-Menten fit, triplicate (duplicate for 8, 27, 34, 35); for k cat/K M / k cat: per monomer peptide; for K M / k cat: Michaelis-Menten fit. On the procedure: (§1) The reaction buffer consisted of the same buffer as the fibrillization buffer without ZnCl2 and with 1.33 mM 4NPA prepared from a 100 mM stock in CH3CN. The samples of the amyloid library were mixed 1:3 with the reaction buffer yielding 40 μM peptide and, when present 250 μM zinc(II). The absorbance measurements were performed in a BMG Pherastar platereader with a 400 nm band-pass filter (10 nm bandwidth) in 96-well Nunclon Delta surface plates or 384-well Greiner Bio-One non-bind black μclear plates.
The kinetics assays performed on the purified peptides were prepared similarly except that the peptide concentration was 20 μM in the reaction. Furthermore, the various substrate concentrations and replicate samples were randomly distributed over the plate to minimize systematic errors. Various 4NPA concentrations (i.e. 0.1 mM, 0.2 mM, 0.4 mM, 0.6 mM, 1.0 mM) were added from a 100 times stock so that the final CH3CN concentration was always 1%. The linear part of the hydrolysis activity was fit with an extinction coefficient of ε = 9700 M^-1cm^-1 and corrected for the background reaction rate of buffer alone (v bg = 5.0 × 10^-6 Ms^-1) to obtain the initial reaction rate v 0. The average of the initial reaction rates at each substrate concentration were then fit to the Michaelis-Menten type kinetics to obtain k cat, K M and k cat/K M always calculated per monomer peptide. The background reaction rate was obtained similarly using 5 replicates.

Series [2] can be described thus: Aggregation at pH 4 from soluble material left after 100,000 g centrifugation. Format: physicochemical. The note with it: 40 μM purified peptide, pH 4, soluble material in supernatant of 100,000 g centrifugation.
Series [3] can be described thus: Activity screen of the amyloid library, 4NPA hydrolysis in plate reader (Fig 1). Format: biochemical. The note with it: for hydrolytic activity in the screen: condition 2: pH 7.3 with ZnCl2, 40 μM crude peptide, 250 μM zinc(II), A400. On the procedure:
The most common assay for hydrolytic activity in enzymes is with the chromogenic substrate p-nitrophenyl acetate (4NPA). Therefore, 4NPA was chosen permitting a direct comparison of the hits from the screen with natural enzymes. Using an absorbance plate reader, we screened the activity of the amyloid library at a peptide concentration of 40 μM, fibrillized at pH 4 or 7.3 and in the presence of divalent cations (250 μM Co^2+, Cu^2+, Mg^2+, Mn^2+, Ni^2+, or Zn^2+) (Fig 1). […] Imidazole is known to catalyze 4NPA hydrolysis under these conditions via an acyl intermediate and it was used as a standard to compare the measured activity of the peptides from plate to plate.
Fig 1 Activity screens of peptide amyloids in various conditions. The hydrolysis rates of 4NPA measured for each of the peptide amyloids (in columns) are shown as a ratio to the negative control (buffer) with color-codes as indicated at the bottom of the Figure. A color code from black (rate ratio of 1.0) to light blue (1.5) to red (19) is used. Activities below the negative control are indicated with smaller disks and color-coded from light grey to black. Occasionally observed negative reaction rates are indicated by small blue disks. The peptide amyloids were tested in a total of 46 conditions of which 19 conditions are shown here (in rows). The peptides are numbered according to Table 2, including a short nomenclature highlighting only the variable residues (e.g. the peptide Ac-YVDVHVSV-CONH2 is abbreviated DHS). The conditions are sorted top-down with the highest observed activity at the top. A detailed list of the conditions tested are shown in Table B in S1 File, while below a compressed introduction to the different conditions is listed: (2) pH 7.3 with ZnCl2 (control for 33 without heating), (33) condition 2 and heated to 95°C for 1 h prior to screening, (46) condition 2 and screened in 50% DMSO, (39) condition 2 and screened with 4.75 M NaCl, (40) condition 2 and screened with 0.2 M MgCl2, (45) condition 2 and screened in 90% EtOH, (38) condition 2 and screened with 0.2 M NaCl, (30) pH 7.3 with ZnCl2 and 1 M Na2SO4, (35) pH 7.3 and screened in 4.75 M NaCl, (34) pH 7.3 and screened in 0.5 M NaCl, (37) pH 7.3 and screened in 2 M MgCl2, (27) pH 7.3 with ZnCl2 and 0.2 M MgCl2, (6) pH 7.3 with NiCl2, (4) pH 7.3 with CoCl2, (1) pH 7.3 without other additives, (41) condition 2 and screened in 2 M MgCl2, (5) pH 7.3 with CuCl2, (36) pH 7.3 and screened in 0.2 M MgCl2 and (8) pH 4.0 without other additives.
as §1
Table B: Amyloid growth and measurement conditions.
Growth = Measurement1 Growth⁄= Measurement1
Divalent2 pH3 T (◦C) Additive Divalent pH T (◦C) Additive
1. The conditions for ﬁbrillization and 4NPA assay are the same for 1-32 except that the 4NPA assay was always at 30 ◦C and the divalent concentration was one-fourth as high. For condition 33, the sample was heated to 95 ◦C for 1 hour prior to the 4NPA assay and for 34-46 the samples were ﬁbrillized in condition 1 or 2 and then transferred to the new conditions with additive just for the 4NPA assay.
2. Divalent concentration is 1 mM for growth and 250µM for 4NPA assay.
3. Grown and measured in 50 mM buﬀer: HEPES at pH 7.3, NaOAc at pH 4.0, or phthalate at pH 2.2.

A short description of series [4]: X-ray fiber diffraction of aligned fibrils. Format: physicochemical. The settings on record: washed pellets dried between glass capillaries, room temperature. As to the method: The samples were centrifuged, the pellet resuspended (ultrapure water or 10 mM NaOAc pH 4) and centrifuged again. The washed pellets were resuspended in a minimal amount of water and 4 μl of the suspension were pipetted between the melted ends of two glass capillaries, which were then left to dry overnight in a sealed petri dish. The dried material was placed in an X-ray beam (Rigaku MicroMax-007HF) at room temperature for a 20 min exposure and diffraction data was collected on a Mar345 image plate detector.
Table A and associated data: Biophysical characterization of library […]
1. Fold increase in ThT ﬂuorescence over background.
2. CD spectra classiﬁed as follows: (β+) has minimum near 217 nm, (β++) has minimum near 217 nm and a maximum near 197 nm, (−) signal too weak to interpret, (?) spectra not typical of any secondary […]
3. The peak position in amide I region is given in cm−1. […]
within the typical range of stretching frequencies forβ-structure (between dashed lines at 1638 cm−1 and […]
4. (+) ﬁbrils present or (−) absent in EM micrographs.
5. Diﬀraction images recorded for the aligned ﬁbrils of 5 diﬀerent peptides (see materials and methods).

With “Ac-YVHVHVDV-NH2 [Peptide 21, Ac-YVHVHVDV-CONH2]”, in series [1], the “k cat/K M” value worked out at 0.473 ± 0.046 M⁻¹ s⁻¹, the “K M” value is 1230 ± 320 µM and the k cat is given as 0.059±0.010 10^-2s^-1. For the same substance, in series [2], the “aggregation behaviour at pH 4” value was “remained soluble for several days”.

For the substance “Ac-YVSVHVHV-NH2 [Peptide 9, Ac-YVSVHVHV-CONH2]”, in series [1], the “k cat/K M” value worked out at 1.461 ± 0.094 M⁻¹ s⁻¹, the “K M” value amounted to 3710 ± 390 µM and the k cat was 0.544±0.048 10^-2s^-1. Moreover, the “hydrolytic activity in the screen” value in series [3] is “highest activity”.

Consider “Ac-YVDVHVDV-NH2 [Peptide 25, Ac-YVDVHVDV-CONH2]”, for which the “relative activity in the screen in 50% DMSO” value in series [3] (condition 46: fibrillized at pH 7.3 with ZnCl2, screened in 50% DMSO, also activity above positive control (200 μM imidazole)) is recorded as “increased relative activity compared to the same condition without DMSO”.

On to “Ac-YVHVHVHV-NH2 [Peptide 8, Ac-YVHVHVHV-CONH2]”, for which the “X-ray diffraction of aligned fibrils” value in series [4] is “cross-β”. In addition, in series [1], the “k cat/K M” value was 2.288 ± 0.077 M⁻¹ s⁻¹, the “K M” value was determined as 2390 ± 320 µM and the k cat is recorded as 0.547±0.056 10^-2s^-1. Also, in series [3], the “hydrolytic activity in the screen” value is “highest activity”.

On to “Ac-YVHVHVSV-NH2 [Peptide 11, Ac-YVHVHVSV-CONH2]”, for which, in series [1], the “k cat/K M” value is 6.29 ± 0.52 M⁻¹ s⁻¹, the “K M” value turned out to be 870 ± 150 µM and the k cat is recorded as 0.514±0.051 10^-2s^-1. For the same substance, the “hydrolytic activity in the screen” value in series [3] is “highest activity”.

For the substance “Ac-YVAVHVHV-NH2 [Peptide 27, Ac-YVAVHVHV-CONH2]”, the “X-ray diffraction of aligned fibrils” value in series [4] is recorded as “cross-β”. Moreover, in series [1], the “k cat/K M” value is 4.26 ± 0.13 M⁻¹ s⁻¹, the “K M” value stood at 7200 ± 2100 µM and the k cat is given as 3.05±0.80 10^-2s^-1. Also, in series [3], the “hydrolytic activity in the screen” value is “highest activity”. The “activity in the screen under extreme conditions” value in series [3] (high organic solvent content (50% DMSO, 90% EtOH) or high salt (4.75 M NaCl, 1 M Na2SO4), with ZnCl2) is “often significant”.
